Experimental findings from patent EP1032561B1, “SUBSTITUTED OXIMES AS NEUROKININ ANTAGONISTS” (SCHERING CORPORATION, priority 1997, dated 1999) are described below.

One assay deals with T1, NK2 receptor (Homo sapiens, UniProt P21452).
T1 sequence (P21452 1-398): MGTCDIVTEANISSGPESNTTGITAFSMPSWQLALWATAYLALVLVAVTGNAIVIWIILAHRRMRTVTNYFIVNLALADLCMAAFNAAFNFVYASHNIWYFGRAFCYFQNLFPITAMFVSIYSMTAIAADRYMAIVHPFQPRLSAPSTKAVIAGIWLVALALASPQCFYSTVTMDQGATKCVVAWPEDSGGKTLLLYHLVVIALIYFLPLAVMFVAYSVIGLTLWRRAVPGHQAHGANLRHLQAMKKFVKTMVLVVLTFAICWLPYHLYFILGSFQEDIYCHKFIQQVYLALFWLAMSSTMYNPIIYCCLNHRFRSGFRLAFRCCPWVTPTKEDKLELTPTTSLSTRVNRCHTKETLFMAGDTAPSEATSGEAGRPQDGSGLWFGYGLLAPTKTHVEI
Kind of assay: neurokinin receptor binding assay, NK2. An excerpt:
(§1) The in vitro and in vivo activity of the compounds of formula I can be determined by various procedures known in the art, such as a test for their ability to inhibit the activity of the NK1 agonist Substance P, an isolated hamster trachea NK2 assay, a test of the effect of NK1 antagonists on Substance P-induced airway microvascular leakage, measurement of NK2 activity in vivo in guinea pigs, measurement of bronchoconstriction due to NKA, and neurokinin receptor binding assay(s). Typical procedures are described in WO96/34857, published November 7, 1996. NK3 activity is determined by following a procedure similar to that described in the literature, e.g., Molecular Pharmacol., 48 (1995), p. 711-716.
(§2) % Inhibition is the difference between the percent of maximum specific binding (MSB) and 100%. The percent of MSB is defined by the following equation, wherein "dpm" is disintegrations per minute: % MSB =((dpm of unknown) - (dpm of nonspecific binding))/((dpm of total binding) - (dpm of nonspecific binding))X 100 [formula]

A further assay deals with NK1 receptor (Homo sapiens, UniProt P25103). As to the kind of experiment: neurokinin receptor binding assay, NK1.
Description: as §1, §2

NK1 receptor, sequence (P25103 whole entry, species assumed): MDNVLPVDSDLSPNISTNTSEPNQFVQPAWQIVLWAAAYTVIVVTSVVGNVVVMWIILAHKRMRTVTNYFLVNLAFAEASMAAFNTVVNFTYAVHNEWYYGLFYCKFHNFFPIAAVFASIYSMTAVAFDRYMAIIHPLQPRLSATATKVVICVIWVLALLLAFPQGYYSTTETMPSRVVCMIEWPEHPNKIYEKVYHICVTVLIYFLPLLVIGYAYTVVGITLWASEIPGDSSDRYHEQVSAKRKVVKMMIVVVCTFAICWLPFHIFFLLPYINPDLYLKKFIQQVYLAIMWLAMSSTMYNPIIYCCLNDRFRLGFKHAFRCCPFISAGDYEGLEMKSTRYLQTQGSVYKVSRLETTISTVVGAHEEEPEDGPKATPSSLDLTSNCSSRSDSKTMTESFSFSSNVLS

For the compound `CON=C(CN(C)C(=O)c1cc(C(F)(F)F)cc(C(F)(F)F)c1)C(CCN1CCC(O)(c2ccccc2)CC1)c1ccc(Cl)c(Cl)c1` (centres unmarked) [Example 11], the Ki on NK2 receptor amounted to 9.2 nM; on NK1 receptor, 3.6 nM.
